target: c-Kit kinase (Homo sapiens (Human), UniProt P10721); assay: c-Kit biochemical assay (AlphaScreen kinase activity)
In short: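 IC50 values come from 8-point, 1:3 compound titrations measuring inhibition of peptide phosphorylation by c-Kit (commercial or His-tagged E. coli-expressed) over 1 h at room temperature, read by AlphaScreen PY30/streptavidin beads. Low-ATP version: 10 μM ATP, 100 nM biotin-(E4Y)3; high-ATP version: 100 μM ATP, 30 nM biotin-(E4Y)10.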

c-Kit kinase, sequence (P10721 26-976): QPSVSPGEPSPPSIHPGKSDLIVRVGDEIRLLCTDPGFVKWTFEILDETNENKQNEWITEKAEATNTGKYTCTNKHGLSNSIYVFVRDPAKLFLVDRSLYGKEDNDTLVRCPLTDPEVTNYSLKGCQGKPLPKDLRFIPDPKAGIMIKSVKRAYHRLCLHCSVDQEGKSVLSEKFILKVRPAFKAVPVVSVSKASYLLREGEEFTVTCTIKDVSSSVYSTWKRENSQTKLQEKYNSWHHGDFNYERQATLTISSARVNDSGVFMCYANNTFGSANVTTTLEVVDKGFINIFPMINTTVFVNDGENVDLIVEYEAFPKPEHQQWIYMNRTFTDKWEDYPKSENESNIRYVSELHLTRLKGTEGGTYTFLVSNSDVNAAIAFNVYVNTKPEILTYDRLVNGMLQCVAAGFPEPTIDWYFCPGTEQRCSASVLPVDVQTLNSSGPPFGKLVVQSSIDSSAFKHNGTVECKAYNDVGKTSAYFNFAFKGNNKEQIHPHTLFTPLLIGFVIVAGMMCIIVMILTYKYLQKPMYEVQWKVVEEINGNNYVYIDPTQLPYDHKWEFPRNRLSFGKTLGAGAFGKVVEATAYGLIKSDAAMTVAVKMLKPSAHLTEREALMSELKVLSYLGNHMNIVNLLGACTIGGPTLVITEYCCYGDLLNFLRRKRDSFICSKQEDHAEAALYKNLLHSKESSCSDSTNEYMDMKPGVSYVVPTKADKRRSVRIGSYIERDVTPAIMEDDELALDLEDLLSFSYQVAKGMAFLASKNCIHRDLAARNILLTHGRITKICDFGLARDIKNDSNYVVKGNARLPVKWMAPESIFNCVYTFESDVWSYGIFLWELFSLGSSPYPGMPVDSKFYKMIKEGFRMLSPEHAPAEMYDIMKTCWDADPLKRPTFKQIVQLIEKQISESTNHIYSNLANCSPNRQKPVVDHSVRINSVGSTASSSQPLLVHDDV

Structure (SMILES) | IC50 [µM]
Cc1nc(C2CCN(c3ncnc4[nH]c(-c5ccc(C#N)cc5)cc34)CC2)[nH]c1-c1ccccc1 [P-3047, 4-[4-[4-(4-methyl-5-phenyl-1H-imidazol-2-yl)-1-piperidyl]-7H-pyrrolo[2,3-d]pyrimidin-6-yl]benzonitrile] | 1 to 10
Cc1nc(C2CCN(c3ncnc4[nH]c(-c5ccc(S(N)(=O)=O)cc5)cc34)CC2)[nH]c1-c1ccccc1 [P-3048, 4-[4-[4-(4-methyl-5-phenyl-1H-imidazol-2-yl)-1-piperidyl]-7H-pyrrolo[2,3-d]pyrimidin-6-yl]benzenesulfonamide] | 1 to 10
CNC(=O)c1cccc(-c2cc3c(N4CCC(c5nc(C)c(-c6ccccc6)[nH]5)CC4)ncnc3[nH]2)c1 [P-3049, N-methyl-3-[4-[4-(4-methyl-5-phenyl-1H-imidazol-2-yl)-1-piperidyl]-7H-pyrrolo[2,3-d]pyrimidin-6-yl]benzamide] | 1 to 10
Cc1nc(C2CCN(c3ncnc4[nH]c(-c5cnn(C(F)F)c5)cc34)CC2)[nH]c1-c1ccccc1 [P-3050, 6-[1-(difluoromethyl)pyrazol-4-yl]-4-[4-(4-methyl-5-phenyl-1H-imidazol-2-yl)-1-piperidyl]-7H-pyrrolo[2,3-d]pyrimidine] | 0.0001 to 1
Cc1nc(C2CCN(c3ncnc4[nH]c(-c5cccc(S(N)(=O)=O)c5)cc34)CC2)[nH]c1-c1ccccc1 [P-3051, 3-[4-[4-(4-methyl-5-phenyl-1H-imidazol-2-yl)-1-piperidyl]-7H-pyrrolo[2,3-d]pyrimidin-6-yl]benzenesulfonamide] | 0.0001 to 1
COc1ccc(-c2[nH]c(C3(C)CCN(c4ncnc5[nH]c(-c6ccc(F)cc6)cc45)CC3)nc2C)cc1C [P-3052, 6-(4-fluorophenyl)-4-[4-[5-(4-methoxy-3-methyl-phenyl)-4-methyl-1H-imidazol-2-yl]-4-methyl-1-piperidyl]-7H-pyrrolo[2,3-d]pyrimidine] | 0.0001 to 1
COc1ccc(-c2[nH]c(C3(C)CCN(c4ncnc5[nH]c(-c6ccc(C#N)cc6)cc45)CC3)nc2C)cc1C [P-3053, 4-[4-[4-[5-(4-methoxy-3-methyl-phenyl)-4-methyl-1H-imidazol-2-yl]-4-methyl-1-piperidyl]-7H-pyrrolo[2,3-d]pyrimidin-6-yl]benzonitrile] | 0.0001 to 1
COc1cc(-c2cc3c(N4CCC(C)(c5nc(C)c(-c6ccc(OC)c(C)c6)[nH]5)CC4)ncnc3[nH]2)ccn1 [P-3054, 4-[4-[5-(4-methoxy-3-methyl-phenyl)-4-methyl-1H-imidazol-2-yl]-4-methyl-1-piperidyl]-6-(2-methoxy-4-pyridyl)-7H-pyrrolo[2,3-d]pyrimidine] | 0.0001 to 1
CCC1(c2nc(C)c(-c3ccc(OC)cc3)[nH]2)CCN(c2ncnc3[nH]c(-c4ccc(F)cc4)cc23)CC1 [P-3055, 4-[4-ethyl-4-[5-(4-methoxyphenyl)-4-methyl-1H-imidazol-2-yl]-1-piperidyl]-6-(4-fluorophenyl)-7H-pyrrolo[2,3-d]pyrimidine] | 0.0001 to 1
CCC1(c2nc(C)c(-c3ccc(OC)c(C)c3)[nH]2)CCN(c2ncnc3[nH]c(-c4ccc(F)cc4)cc23)CC1 [P-3056, 4-[4-ethyl-4-[5-(4-methoxy-3-methyl-phenyl)-4-methyl-1H-imidazol-2-yl]-1-piperidyl]-6-(4-fluorophenyl)-7H-pyrrolo[2,3-d]pyrimidine] | 0.0001 to 1
Cc1nc(C2(C)CCN(c3ncnc4[nH]c(-c5ccc(F)cc5)cc34)CC2)[nH]c1-c1ccc(F)cc1 [P-3057, 6-(4-fluorophenyl)-4-[4-[5-(4-fluorophenyl)-4-methyl-1H-imidazol-2-yl]-4-methyl-1-piperidyl]-7H-pyrrolo[2,3-d]pyrimidine] | 0.0001 to 1
Cc1nc(C2(C)CCN(c3ncnc4[nH]c(-c5ccc(F)cc5)cc34)CC2)[nH]c1-c1ccc(Cl)cc1 [P-3058, 4-[4-[5-(4-chlorophenyl)-4-methyl-1H-imidazol-2-yl]-4-methyl-1-piperidyl]-6-(4-fluorophenyl)-7H-pyrrolo[2,3-d]pyrimidine] | 0.0001 to 1
